# Reference: patent publication US8399481B2, “Compounds” (Xention Ltd, priority 2009, dated 2013)
# No end group written: not given here.
# What was measured:
# hKv1.3 = hKv1.3 (Homo sapiens, UniProt P22001); test: hKv1.3 % inhibition at 1 uM (Table 1); type: cell-based; details: for inhibition at 1 µM: read-out: hKv1.3 % inh. 1 uM
# hKv1.5 = hKv1.5 (Homo sapiens, UniProt P22460); test: hKv1.5 % inhibition at 300 nM (Table 1); type: cell-based; details: for inhibition at 0.3 µM: read-out: hKv1.5 % inh. 300 nM
# Chain of hKv1.5 (P22460 whole entry): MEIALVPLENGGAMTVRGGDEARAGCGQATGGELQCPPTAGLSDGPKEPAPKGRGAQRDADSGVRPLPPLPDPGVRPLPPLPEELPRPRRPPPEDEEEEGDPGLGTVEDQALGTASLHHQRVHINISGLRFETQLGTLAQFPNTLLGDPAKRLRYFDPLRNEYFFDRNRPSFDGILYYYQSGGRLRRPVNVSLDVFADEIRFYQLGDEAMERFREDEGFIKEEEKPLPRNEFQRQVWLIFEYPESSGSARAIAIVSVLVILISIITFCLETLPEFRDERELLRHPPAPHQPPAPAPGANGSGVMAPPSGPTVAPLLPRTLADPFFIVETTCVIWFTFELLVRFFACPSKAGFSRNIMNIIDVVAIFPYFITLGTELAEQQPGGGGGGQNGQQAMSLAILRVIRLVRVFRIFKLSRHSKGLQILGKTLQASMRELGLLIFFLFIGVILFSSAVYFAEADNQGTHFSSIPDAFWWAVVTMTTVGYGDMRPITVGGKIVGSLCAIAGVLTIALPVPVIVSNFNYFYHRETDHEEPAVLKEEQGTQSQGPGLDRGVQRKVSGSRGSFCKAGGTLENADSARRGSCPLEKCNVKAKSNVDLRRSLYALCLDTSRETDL
# [1] = system: delayed-type hypersensitivity (DTH) response; details: DTH model in vivo; cited from earlier work
# Chain of hKv1.3 (P22001 whole entry): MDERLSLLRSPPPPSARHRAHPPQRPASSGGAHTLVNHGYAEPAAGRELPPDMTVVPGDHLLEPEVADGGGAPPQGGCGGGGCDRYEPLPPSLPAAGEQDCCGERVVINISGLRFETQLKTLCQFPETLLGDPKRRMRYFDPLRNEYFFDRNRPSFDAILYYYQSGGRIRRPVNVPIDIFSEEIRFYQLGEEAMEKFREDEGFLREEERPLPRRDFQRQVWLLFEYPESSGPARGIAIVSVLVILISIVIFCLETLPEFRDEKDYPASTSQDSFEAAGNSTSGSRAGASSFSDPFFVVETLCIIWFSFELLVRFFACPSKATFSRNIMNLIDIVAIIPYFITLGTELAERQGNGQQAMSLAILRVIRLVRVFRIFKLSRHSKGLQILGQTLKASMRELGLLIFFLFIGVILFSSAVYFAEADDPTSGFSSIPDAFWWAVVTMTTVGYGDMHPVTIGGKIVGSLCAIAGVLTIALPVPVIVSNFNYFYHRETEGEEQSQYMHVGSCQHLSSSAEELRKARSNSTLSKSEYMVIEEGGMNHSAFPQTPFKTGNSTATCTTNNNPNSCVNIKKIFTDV
Molecule,hKv1.3 % inh. 1 uM (hKv1.3) [%],hKv1.5 % inh. 300 nM (hKv1.5) [%],suppression of DTH response [1],inhibition at 1 µM (hKv1.3) [%],inhibition at 0.3 µM (hKv1.5) [%]
"1-Methyl-1H-imidazole-4-sulfonic acid (4-chloro-benzyl)-(2-ethyl-1-oxo-2,3-dihydro-1H-isoindol-4-yl)-amide [Example 21]",69.8,23.8,–,–,–
C=C1C[C@@]2(O)[C@@H]3CC[C@@]4(C)[C@@H]5C=CC(=O)OC[C@]5(C(C)OC(C)=O)[C@@H](OC(C)=O)[C@@H](OC(C)=O)[C@@H]4[C@@]3(C)[C@H](OC(C)=O)[C@H](OC(C)=O)[C@@]2(C)C2(C(=O)OC)O[C@H]12 (stereo partly shown) [Correolide],–,–,effective,–,–
"CCN1CCc2ccc(N(Cc3ccc(Cl)cc3)S(=O)(=O)c3ccn(C)n3)cc2C1=O [Example 1, 1-Methyl-1H-pyrazole-3-sulfonic acid (4-chloro-benzyl)-(2-ethyl-1-oxo-1,2,3,4-tetrahydro-isoquinolin-7-yl)-amide]",–,–,–,99.6,82.4
"CCN1Cc2ccc(N(Cc3ccc(Cl)cc3)S(=O)(=O)c3cccnc3)cc2C1=O [Example 2, Pyridine-3-sulfonic acid (40chloro-benzyl)-(2-ethyl-3-oxo-2,3-dihydro-1H-isoindol-5-yl)-amide]",97.2,65.0,–,–,–
"CCN1Cc2ccc(N(Cc3ccc(Cl)cc3)S(=O)(=O)c3ccn(C)n3)cc2C1=O [Example 4, 1-Methyl-1H-pyrazole-3-sulfonic acid (4-chloro-benzyl)-(2-ethyl-3-oxo-2,3-dihydro-1H-isoindol-5-yl)-amide]",–,–,–,96.6,63.8
"O=C1c2cc(N(Cc3ccc(Cl)cc3)S(=O)(=O)c3cccnc3)ccc2CCN1CCO [Example 5, Pyridine-3-sulfonic acid (4-chloro-benzyl)-[2-(2-hydroxy-ethyl)-1-oxo-1,2,3,4-tetrahydro-isoquinolin-7-yl]-amide]",–,–,–,96.4,76
"CCN1CC(C)(C)c2ccc(N(Cc3ccc(Cl)cc3)S(=O)(=O)c3cn(C)cn3)cc2C1=O [Example 6, 1-Methyl-1H-imidazole-4-sulfonic acid (4-chloro-benzyl)-(2-ethyl-4,4-dimethyl-1-oxo-1,2,3,4-tetrahydro-isoquinolin-7-yl)-amide]",–,–,–,96.1,70.1
"Cn1ccc(S(=O)(=O)N(Cc2ccc(Cl)cc2)c2ccc3c(c2)C(=O)NCC3)n1 [Example 7, 1-Methyl-1H-pyrazole-3-sulfonic acid (4-chloro-benzyl)-(1-oxo-1,2,3,4-tetrahydro-isoquinolin-7-yl)-amide]",–,–,–,95.5,42.6
"N#Cc1cccc(S(=O)(=O)N(Cc2ccc(Cl)cc2)c2ccc3c(c2)C(=O)NCC3)c1 [Example 8, N-(4-Chloro-benzyl)-3-cyano-N-(1-oxo-1,2,3,4-tetrahydro-isoquinolin-7-yl)-benzenesulfonamide]",–,–,–,94.6,91.2
"CN1CCc2ccc(N(Cc3ccc(Cl)cc3)S(=O)(=O)c3ccn(C)n3)cc2C1=O [Example 9, 1-Methyl-1H-pyrazole-3-sulfonic acid (4-chloro-benzyl)-(2-methyl-1-oxo-1,2,3,4-tetrahydro-isoquinolin-7-yl)-amide]",–,–,–,94.5,76.4
"Cn1ccc(S(=O)(=O)N(Cc2ccc(Cl)cc2)c2ccc3c(c2)C(=O)N(CCO)CC3)n1 [Example 10, 1-Methyl-1H-pyrazole-3-sulfonic acid (4-chloro-benzyl)-[2-(2-hydroxy-ethyl)-1-oxo-1,2,3,4-tetrahydro-isoquinolin-7-yl]-amide]",–,–,–,94.2,47.1
"CCN1Cc2ccc(N(Cc3ccc(Cl)cc3)S(=O)(=O)c3cccc(C#N)c3)cc2C1=O [Example 11, N-(4-Chloro-benzyl)-3-cyano-n-(2-ethyl-3-oxo-2,3-dihydro-1H-isoindol-5-yl)-benzene sulfonamide]",93.8,86.9,–,–,–
"CCN1Cc2cc(N(Cc3ccc(Cl)cc3)S(=O)(=O)c3cccc(C#N)c3)ccc2C1=O [Example 12, N-(4-Chloro-benzyl)-3-cyano-N-(2-ethyl-1-oxo-2,3-dihydro-1H-isoindol-5-yl) benzene sulfonamide]",93.0,63.2,–,–,–
"O=C1NCCc2ccc(N(Cc3ccc(Cl)cc3)S(=O)(=O)c3cccnc3)cc21 [Example 13, Pyridine-3-sulfonic acid (4-chloro-benzyl)-(1-oxo-1,2,3,4-tetrahydro-isoquinolin-7-yl)-amide]",–,–,–,90.5,36
"CCN1Cc2ccc(N(Cc3ccc(Cl)cc3)S(=O)(=O)c3cn(C)cn3)cc2C1=O [Example 14, 1-Methyl-1H-imidazole-4-sulfonic acid (4-chloro-benzyl)-(2-ethyl-3-oxo-2,3-dihydro-1H-isoindol-5-yl)-amide]",–,–,–,89.7,27.1
CC1(C)CNC(=O)c2cc(N(Cc3ccc(Cl)cc3)S(=O)(=O)c3cccnc3)ccc21 [Example 15],88.9,70.0,–,–,–
"Cn1ccc(S(=O)(=O)N(Cc2ccc(Cl)cc2)c2ccc3c(c2)C(=O)NCC3(C)C)n1 [Example 16, 1-Methyl-1H-pyrazole-3-sulfonic acid (4-chloro-benzyl)-(4,4-dimethyl-1-oxo-1,2,3,4-tetrahydro-isoquinolin-7-yl)-amide]",–,–,–,88.3,64.2
"CC(C)N1C(=O)c2ccc(N(Cc3ccc(Cl)cc3)S(=O)(=O)c3cn(C)cn3)cc2C1=O [Example 17, 1-Methyl-1H-imidazole-4-sulfonic acid (4-chloro-benzyl)-(2-isopropyl-1,3-dioxo-2,3-dihydro-1-H-isoindol-5-yl)-amide]",79.7,58.0,–,–,–
"CCN1Cc2cc(N(Cc3ccc(Cl)cc3)S(=O)(=O)c3ccn(C)n3)ccc2C1=O [Example 18, 1-Methyl-1H-pyrazole-3-sulfonic acid (4-chloro-benzyl)-(2-ethyl-1-oxo-2,3-dihydro-1H-isoindol-5-yl)-amide]",–,–,–,75.2,77.3
"CCN1CCc2cc(N(Cc3ccccc3)S(=O)(=O)c3ccn(C)n3)ccc2C1=O [Example 19, 1-Methyl-1H-pyrazole-3-sulfonic acid benzyl (2-ethyl-1-oxo-1,2,3,4-tetrahydro-isoquinolin-6-yl)-amide]",74.3,25.4,–,–,–
"Cn1cnc(S(=O)(=O)N(Cc2ccc(Cl)cc2)c2ccc3c(c2)C(=O)NCC3(C)C)c1 [Example 20, 1-Methyl-1H-imidazole-4-sulfonic acid (4-chloro-benzyl)-(4,4-dimethyl-1-oxo-1,2,3,4-tetrahydro-isoquinolin-7-yl)-amide]",–,–,–,72.6,34.1
"CCN1Cc2cc(N(Cc3ccc(Cl)cc3)S(=O)(=O)c3cn(C)cn3)ccc2C1=O [Example 22, 1-Methyl-1H-imidazole-4-sulfonic acid (4-chloro-benzyl)-(2-ethyl-1-oxo-2,3-dihydro-1H-isoindol-5-yl)-amide]",–,–,–,67.9,30.6
"CCN1CCc2cc(N(Cc3ccccc3)S(=O)(=O)c3cn(C)cn3)ccc2C1=O [Example 23, 1-Methyl-1H-imidazole-4-sulfonic acid benzyl-(2-ethyl-1-oxo-1,2,3,4-tetrahydro-isoquinolin-6-yl)-amide]",–,–,–,58,26.5
O=c1ccc2c(OCCCCOc3ccccc3)c3ccoc3cc2o1 [PAP-1],–,–,effective,–,–
"N-(4-Chloro-benzyl)-3-cyano-N-(1-oxo-1,2,3,4-tetrahydro-isoquinolin-7-yl)-benzenesulfonamide [Example 3]",97.2,87.8,–,–,–
"margatoxin (TIINVKCTSPKQCLPPCKAQFGQSAGAKCMNGKCKCYPH; ends and bridges not checked; cysteine pairing not given here; UniProt P40755 1-39, looked up) [MgTX]",–,–,effectively suppressed,–,–
